Test results from patent publication US7884234B2, “N-phenyloxamide derivatives” (Institute of Medicinal Molecular Design, inc., priority 2006, dated 2011).

Assays:
Format in all cases: biochemical
recombinant human PAI-1 [1] = target: T1, recombinant human PAI-1 (Homo sapiens, UniProt P05121); assay: Test Example 1: human PAI-1 inhibitory activity (tPA fluorogenic substrate assay, pH7.5 Tris buffer); details: for inhibition at 5 µM: pH 7.5, compound 5 μM; for inhibition at 5 µM / inhibition at 10 µM / inhibition at 25 µM: read-out: Inhibition Rate of Human PAI-1 Activity (%); for inhibition at 10 µM: pH 7.5, compound 10 μM; for inhibition at 25 µM: pH 7.5, compound 25 μM
T1 construct: purchased Molecular Innovations, Inc
Text: <Composition of pH7.5 Tris Buffer)
0.01% Tween80 (SIGMA-ALDRICH Corporation)

recombinant rat PAI-1 = target: T2, recombinant rat PAI-1 (Rattus norvegicus, UniProt P20961); assay: Test Example 3: rat PAI-1 inhibitory activity (tPA fluorogenic substrate assay, pH7.4 HEPES buffer); details: for IC50: pH7.4 HEPES buffer, obtained from Table 7 results; for inhibition at 10 µM: pH 7.4, read-out: Inhibition Rate of Rat PAI-1 Activity (%)
T2 construct: purchased Molecular Innovations, Inc
T2 sequence (P20961 24-402): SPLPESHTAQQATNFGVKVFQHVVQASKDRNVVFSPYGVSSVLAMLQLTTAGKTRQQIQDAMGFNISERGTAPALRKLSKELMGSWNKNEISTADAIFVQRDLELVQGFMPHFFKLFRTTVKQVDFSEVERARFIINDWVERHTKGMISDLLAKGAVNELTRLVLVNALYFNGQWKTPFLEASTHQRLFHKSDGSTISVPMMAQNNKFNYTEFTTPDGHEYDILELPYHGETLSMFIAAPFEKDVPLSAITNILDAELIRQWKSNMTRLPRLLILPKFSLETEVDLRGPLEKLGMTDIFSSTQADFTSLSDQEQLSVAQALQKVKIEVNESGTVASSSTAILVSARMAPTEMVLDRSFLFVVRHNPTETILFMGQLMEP
Protocol: (§1) Except using the pH7.4 HEPES buffer instead of pH7.5 Tris buffer, and the change of incubation time from 15 minutes to 10 minutes of the mixed solution added by two-chain tPA solution, tests were carried out similarly to the Test Example 1.

recombinant human PAI-1 [2] = target: T1, recombinant human PAI-1; assay: Test Example 4: human PAI-1 inhibitory activity (amount of PAI-1 bound to plate-coated tPA, ELISA); details: PAI-1 50 ng/ml bound to coated tPA, read-out: Inhibition Rate of Human PAI-1 Activity (%); for inhibition at 0.1 µM: compound 0.1 μM; for inhibition at 0.3 µM: compound 0.3 μM
Protocol: 100 μl of tPA solution where one-chain recombinant tPA (hereinafter refereed to as tPA; American diagnostica, inc.) diluted with Buffer A to achieve a concentration of 10 μg/ml was added to each well of 96-well plate (Nunc Maxisorp), incubated for one night at […] to coated with tPA. Then, after suction of tPA solution from the 96-well plate, rinsed successively with Buffer A and Buffer B.
To Buffer B, solutions of the present application compound dissolved with DMSO (final DMSO concentration: 0.2%) and recombinant human PAI-1 (Molecular Innovations, Inc.) were added and blended so that the final concentrations would be 0.1 to 3.0 μM and 50 ng/ml respectively, and were incubated for 15 minutes on ice. These mixed solutions were added to rinsed 96-well plates at 100 μl/well, and incubated for 60 minutes at room temperature. To prepare calibration curve, PAI-1 solutions without the present application compound (solutions where the final concentrations being 100, 50, 25, 12.5, 6.25, 3.13, 1.56 ng/ml PAI-1) were added at 100 μl/well, and were incubated for 60 minutes at room temperature, as standard.
After incubation, the reaction mixture was suction removed, and rinsed each well with Wash Buffer. Next, anti-human PAI-1 monoclonal antibody (PROGEN Inc.) diluted with Buffer C to be 3.0 μg/ml was added to the 96-well plate at 100 μl/well, and incubated for 1 hour at room temperature. After rinsing each well with Wash Buffer, alkaline phosphatase-labeled goat anti-mouse IgG (H+L) (Jackson ImmunoResearch, Inc.) diluted with Buffer D to be 0.12 μg/ml was added at 100 μl/well, and incubated for 1 hour at room temperature. After rinsing each well with Wash Buffer, 1.0 mg/ml p-Nitrophenyl Phosphate (SIGMA) was added to the 96-well plate at 100 μl/well to start the reaction. After 30 to 60 minutes, 25 μl of 0.5 N NaOH was added to stop the reaction, and the absorbance was measured at 405 nm using a multiplate reader (GENios; TECAN G.M.B.H.).
Based on the calibration curve prepared from the standard wells, amounts of PAI-1 bound to tPA in the wells treated with the present application compound were calculated, and the PAI-1 inhibition rates by the present application compounds were obtained by the following equation. [PAI-1 Inhibition Rate (%)]=[1-(amount of PAI-1 bound to tPA on the well treated with the present application compound)/(amount of PAI-1 bound to tPA on the well treated with PAI-1 solution without present application compound (solution with the final concentration of 50 ng/ml PAI-1)]×100 <Composition of Buffer A> 0.1 M Tris-HCl-150 150 mM NaCl pH 7.7 <Composition of Buffer B> 50 mM sodium phosphate 0.1 M NaCl 1 mM EDTA pH 6.6 <Composition of Buffer C> 50 mM sodium phosphate 100 mM NaCl pH 7.4 <Composition of Buffer D> 0.01 M Tris-HCl 0.25 M NaCl pH 8.0 <Composition of Wash Buffer> 0.05% Tween 20 0.1% BSA in Buffer A <Composition of p-Nitrophenyl Phosphate Solution> 1 M Diethanolamine 0.5 mM MgCl2 p-Nitrophenyl phosphate pH 9.8

recombinant human PAI-1 [3] = target: T1, recombinant human PAI-1; assay: Test Example 2: human PAI-1 inhibitory activity (tPA fluorogenic substrate assay, pH7.4 HEPES buffer); details: pH7.4 HEPES buffer; obtained from Table 5 results
Protocol: as §1
<Compotion of pH7.4 HEPES Buffer>
0.1% Polyethylene glycol 8,000 (Hampton Research Corporation)
2 mM Dimethyldecylphoshine oxide [Apo-10] (Fluka Corporation)

T1 sequence (P05121 24-402): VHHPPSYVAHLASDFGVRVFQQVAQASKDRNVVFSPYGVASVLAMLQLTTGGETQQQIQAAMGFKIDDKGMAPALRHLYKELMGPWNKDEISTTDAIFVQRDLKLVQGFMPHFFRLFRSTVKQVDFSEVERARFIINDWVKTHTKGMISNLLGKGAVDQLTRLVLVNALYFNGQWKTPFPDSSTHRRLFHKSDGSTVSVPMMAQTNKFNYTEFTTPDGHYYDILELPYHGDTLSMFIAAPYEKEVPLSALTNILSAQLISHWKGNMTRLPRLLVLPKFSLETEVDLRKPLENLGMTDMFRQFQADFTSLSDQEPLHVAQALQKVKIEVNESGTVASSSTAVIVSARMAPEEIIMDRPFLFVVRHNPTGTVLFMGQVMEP

| SMILES | inhibition at 5 µM (recombinant human PAI-1 [1]) | inhibition at 10 µM (recombinant human PAI-1 [1]) | IC50 (recombinant rat PAI-1) | inhibition at 0.1 µM (recombinant human PAI-1 [2]) | IC50 (recombinant human PAI-1 [3]) | further results |
| --- | --- | --- | --- | --- | --- | --- |
| CC(C)(C)c1ccccc1N(C(=O)C(=O)O)c1ccccc1-c1ccc(OC(F)(F)F)cc1 [compound 37, N-[2-(tert-butyl)phenyl]-N-[4′-(trifluoromethoxy)biphenyl-2-yl]oxamic Acid] | 25% | 56% |  |  |  | inhibition at 25 µM (recombinant human PAI-1 [1]): 96% |
| CC(C)(C)c1ccc(CN(C(=O)C(=O)O)c2ccc(-c3ccc(C(F)(F)F)cc3)cc2)cc1 [compound 24, N-[4-(tert-butyl)benzyl]-N-[4′-(trifluoromethyl)phenyl-4-yl]oxamic Acid] |  |  |  |  |  | Inhibition Rate of Human PAI-1 Activity (%) (recombinant human PAI-1 [1]; compound 5 μM): 7%; Inhibition Rate of Human PAI-1 Activity (%) (recombinant human PAI-1 [1]; compound 10 μM): 35%; Inhibition Rate of Human PAI-1 Activity (%) (recombinant human PAI-1 [1]; compound 25 μM): 74% |
| CCN(CC)c1ccc(N(Cc2ccc(C(C)(C)C)cc2)C(=O)C(=O)O)c(-c2ccc(OC(F)(F)F)cc2)c1 [compound 88, N-[4-(tert-butyl)benzyl]-N-[5-diethylamino-4′-(trifluoromethoxy)biphenyl-2-yl]oxamic Acid] |  |  | 1.89 µM | 0% | 1.13 µM | inhibition at 0.3 µM (recombinant human PAI-1 [2]): 0% |
| CCCCCOc1ccc(-c2ccc(OC(F)(F)F)cc2)cc1N(Cc1ccc(C(C)(C)C)cc1)C(=O)C(=O)O [compound 74, N-[4-(tert-butyl)benzyl]-N-[4-pentyloxy-4′-(trifluoromethoxy)biphenyl-3-yl]oxamic acid] |  |  | 1.14 µM | 0% | 0.82 µM | inhibition at 10 µM (recombinant rat PAI-1): > 99% |
| O=C(O)C(=O)N(Cc1ccc(C(F)(F)F)cc1)c1ccc(-c2ccc(OC(F)(F)F)cc2)cc1 [compound 34, N-[4′-(trifluoromethoxy)biphenyl-4-yl]-N-[4-(trifluoromethyl)benzyl]oxamic Acid] | 15% | 38% |  |  |  | inhibition at 25 µM (recombinant human PAI-1 [1]): 81% |
| COc1cc(OC)c(N(Cc2ccc(C(C)(C)C)cc2)C(=O)C(=O)O)cc1-c1ccc(OC(F)(F)F)cc1 [compound 70, N-[4-(tert-butyl)benzyl]-N-[2,4-dimethoxy-4′-(trifluoromethoxy)biphenyl-5-yl]oxamic Acid] |  |  | 2.3 µM | 0% | 1.32 µM | inhibition at 10 µM (recombinant rat PAI-1): > 99%; inhibition at 0.3 µM (recombinant human PAI-1 [2]): 0% |
| O=C(O)C(=O)N(Cc1ccccc1)c1ccc(-c2ccc(OC(F)(F)F)cc2)cc1 [compound 6, N-benzyl-N-[4′-(trifluoromethoxy)biphenyl-4-yl]oxamic Acid] | 6% | 12% |  |  |  |  |
